US20060287320A1, “Preparation of thioarabinofuranosyl compounds and use thereof” (Southern Research Institute, priority 1998, published 2006)

Legend:
[1] = test system: CAK1-1 Renal; assay: In vitro IC50, 72 hour exposure, Natural Red assay; assay type: cell-based; conditions: read-out: IC50 Molar Values
Experimental: (§1) EXAMPLE 3 The following in vitro tests were carried out.
(§2) The above tests were carried out with a 72 hour exposure to the compound using Natural Red assay for all cell lines except SK-MEL 28 which was done with SRB assay.

[2] = test system: DLD-1 Colon; assay: In vitro IC50, 72 hour exposure, Natural Red assay; assay type: cell-based; conditions: Homo sapiens, read-out: IC50 Molar Values
Experimental: as §1, §2

[3] = test system: LOX IMV1 Melanoma; assay: In vitro IC50, 72 hour exposure, Natural Red assay; assay type: cell-based; conditions: read-out: IC50 Molar Values
Experimental: as §1, §2

[4] = test system: NC1-H23 Lung; assay: In vitro IC50, 72 hour exposure, Natural Red assay; assay type: cell-based; conditions: read-out: IC50 Molar Values
Experimental: as §1, §2

[5] = test system: PC-3 Prostate; assay: In vitro IC50, 72 hour exposure, Natural Red assay; assay type: cell-based; conditions: read-out: IC50 Molar Values
Experimental: as §1, §2

[6] = test system: SNB-7 (CNS); assay: In vitro IC50, 72 hour exposure, Natural Red assay; assay type: cell-based; conditions: Homo sapiens, read-out: IC50 Molar Values
Experimental: as §1, §2

[7] = test system: ZR-75-1 Mammary; assay: In vitro IC50, 72 hour exposure, Natural Red assay; assay type: cell-based; conditions: Homo sapiens, read-out: IC50 Molar Values
Experimental: as §1, §2

[8] = test system: SK-MEL 28 Melanoma; assay: In vitro IC50, 72 hour exposure, SRB assay; assay type: cell-based; conditions: Homo sapiens, read-out: IC50 Molar Values
Experimental: as §1, §2

[9] = test system: SC Colon 36 Tumor; assay: Response of SC Colon 36 Tumor to Treatment; assay type: in vivo; conditions: 8 Mg/Kg IP, Q 4H × 3 day 9-17
Experimental: (§3) The following in vivo tests were carried out to illustrate the effectiveness of the compounds of the present invention.

[10] = test system: SC CAKI-1 Renal Tumor; assay: Response of SC CAKI-1 Renal Tumor to Treatment; assay type: in vivo; conditions: Q 4H × 3 day 7-15
Experimental: as §3

[11] = test system: SC HCT-116 Colon Tumor; assay: Response of SC HCT-116 Colon Tumor to Treatment; assay type: in vivo; conditions: Q 4H × 3 day 6-14
Experimental: as §3

[12] = test system: CEM cells (wild-type); assay: Metabolism of dCyd and analogs in wild-type CEM cells; assay type: cell-based; conditions: WT CEM cells; 100 nM; incubation time 1 hour
Experimental: (§4) The radioactivity in the 5′-triphosphate peak and the incorporation of radioactivity in the acid-insoluble fraction (DNA) was determined.

[13] = test system: araC-resistant CEM cells; assay: Metabolism of dCyd and analogs in araC-resistant CEM cells; assay type: cell-based; conditions: 100 nM, incubation time 1 hour
Experimental: as §4

[14] = Phosphorylation in cell-free CEM extracts, wild-type; assay type: biochemical; conditions: wild-type CEM cell extract; 1 μm substrate
Experimental: (§5) The number in parentheses is the number of experiments performed. […] At various times after the initiation of the experiment, an aliquot of each reaction volume was removed and placed on DE-81 filters. The filters were washed with 1 mM ammonium formate and ethanol, and the amount of radioactivity on each filter was determined. […] This assay was verified by HPLC.

[15] = Phosphorylation in cell-free CEM extracts, araC-resistant; assay type: biochemical
Experimental: as §5

[16] = biological target: T1, dCyd Kinase Activity Isolated from Molt-4 Cells (Homo sapiens, UniProt P27707); assay: Substrate characteristics with dCyd kinase activity isolated from Molt-4 cells; assay type: biochemical; conditions: dCyd kinase activity from Molt-4 cells
T1 construct: endogenous in cells; host or cells: Molt-4 cells (enzyme purified from the cells)
Experimental: Each assay was done in duplicate and the kinetic constants were determined from linear double-reciprocal plots of 1/velocity versus 1/concentration of the substrate. The best line was determined by linear regression from at least 5 datum points, and the Km and Vmax were determined from the x and y intercepts.

[17] = test system: CEM cells; assay: Complete metabolism of dCyd, T-dCyd, araC and T-araC in CEM cells; assay type: cell-based; conditions: 100 nM, incubation 24 hours
Experimental: The complete metabolism of each compound was determined: The medium was analyzed for the original compound, its deaminated form using reverse phase HPLC, and H20; the acid-soluble extract was analyzed by SAX HPLC for phosphorylated metabolites; and the incorporation of radioactivity into acid-precipitable material (DNA) was determined.

[18] = test system: CEM cells; assay: Effect of F-dUrd on metabolism (deamination) in CEM cells; assay type: cell-based; conditions: 100 nM, incubation time 24 hours
Experimental: The complete metabolism of each compound was determined as described in the legend to Table 12, and the percent of deaminated metabolites for each compound was determined.

[19] = test system: DNA synthesis in CEM cells; assay: Effect on DNA synthesis ([3H]dThd incorporation) in CEM cells; assay type: cell-based; conditions: Homo sapiens, CCRF-CEM, 750 nM, average of two experiments, read-out: DNA synthesis, Percent of control
Experimental: (§6) Radiolabeled precursors of DNA [^3H]dThd, RNA ([^3H]Urd), or protein ([^3H]leucine) were added to each treatment 30 minutes after the addition of each compound. Samples were taken 1, 2, 3 and 4 hours after the addition of radiolabeled precursors, and the incorporation of radioactivity into RNA, DNA, or protein were determined as described (Parker et al, Biochem. Pharmacol. 55: 1673-1681, 1998). Each number represents the average of two experiments.

[20] = test system: RNA synthesis in CEM cells; assay: Effect on RNA synthesis ([3H]Urd incorporation) in CEM cells; assay type: cell-based; conditions: 750 nM, average of two experiments
Experimental: as §6

[21] = test system: protein synthesis in CEM cells; assay: Effect on protein synthesis ([3H]leucine incorporation) in CEM cells; assay type: cell-based; conditions: Homo sapiens, CCRF-CEM, 750 nM, average of two experiments, read-out: protein synthesis, Percent of control
Experimental: as §6

[22] = test system: CEM cells (wild-type); assay: Inhibition of CEM cell growth, wild-type; conditions: Homo sapiens, CCRF-CEM, read-out: IC50 (nM) Wild-type
Experimental: (§7) CEM cells were incubated with various concentrations of each compound and the effect on. cell numbers was determined using a Coulter Counter. The IC50 was determined from a plot of the percent of control growth versus drug concentration. The data presented are the mean and standard deviation from 3 separate experiments.

[23] = test system: araC-resistant CEM cells; assay: Inhibition of CEM cell growth, araC-resistant
Experimental: as §7

T1 sequence (P27707 whole entry): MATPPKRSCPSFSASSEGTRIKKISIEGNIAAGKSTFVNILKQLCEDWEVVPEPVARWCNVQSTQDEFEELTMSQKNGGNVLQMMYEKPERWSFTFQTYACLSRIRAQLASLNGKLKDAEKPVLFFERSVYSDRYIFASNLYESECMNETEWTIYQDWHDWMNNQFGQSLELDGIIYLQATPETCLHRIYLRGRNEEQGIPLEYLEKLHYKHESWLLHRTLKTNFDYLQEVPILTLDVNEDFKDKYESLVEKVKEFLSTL

Compound `Nc1ccn([C@@H]2S[C@H](CO)[C@@H](O)[C@@H]2O)c(=O)n1` [T-araC, 1-(4-Thio-β-D-arabinofuranosyl) cytosine] has an IC50 [1] of 3 µM, an IC50 [2] of 7 µM and an IC50 [3] of 7 µM. The IC50 [4] was 5 µM, the IC50 [5] was 8 µM and the IC50 [6] was 1 µM. The IC50 [7] was 3 µM, the IC50 [8] was 7 µM and the “Days Delay (T − C)” value [9] was >38.5 days. For the same compound, the “Days to 2 Doubling” value [9] was >49.0 days, the “Non-Specific Deaths/Total” value [9] was 0/5 and the “Tumor Free Surv/Total” value [9] was 4/5. The “Tumor Regression Number of Complete” value [9] was 4, the “Tumor Regression Number of Partial” value [9] was 0 and the “Days Delay (T − C)” value ([10]; 8 Mg/Kg IP) was 41.2 days. The “Days to 3 Doubling” value ([10]; 8 Mg/Kg IP) was 50.7 days, the “Non-Specific Deaths/Total” value ([10]; 8 Mg/Kg IP) was 0/6 and the “Tumor Free Surv/Total” value ([10]; 8 Mg/Kg IP) was 0/6. The “Tumor Regression Duration Med” value ([10]; 8 Mg/Kg IP) was 12.7 days, the “Tumor Regression Duration Range” value ([10]; 8 Mg/Kg IP) was 9 to 18 days and the “Tumor Regression Number of Complete” value ([10]; 8 Mg/Kg IP) was 4. For the same compound, the “Tumor Regression Number of Partial” value ([10]; 8 Mg/Kg IP) was 1, the “Days Delay (T − C)” value ([10]; 16 Mg/Kg IP) was 50.3 days and the “Days to 3 Doubling” value ([10]; 16 Mg/Kg IP) was 59.8 days. For the same compound, the “Non-Specific Deaths/Total” value ([10]; 16 Mg/Kg IP) was 1/6, the “Tumor Free Surv/Total” value ([10]; 16 Mg/Kg IP) was 0/6 and the “Tumor Regression Duration Med” value ([10]; 16 Mg/Kg IP) was 26.9 days. For the same compound, the “Tumor Regression Duration Range” value ([10]; 16 Mg/Kg IP) was 16 to 48 days, the “Tumor Regression Number of Complete” value ([10]; 16 Mg/Kg IP) was 5 and the “Tumor Regression Number of Partial” value ([10]; 16 Mg/Kg IP) was 0. For the same compound, the “Days Delay (T − C)” value ([11]; 13.3 Mg/Kg IP) was >43.1 days, the “Days to 2 Doubling” value ([11]; 13.3 Mg/Kg IP) was >52.0 days and the “Non-Specific Deaths/Total” value ([11]; 13.3 Mg/Kg IP) was 0/6. For the same compound, the “Tumor Free Surv/Total” value ([11]; 13.3 Mg/Kg IP) was 5/6, the “Tumor Regression Duration Med” value ([11]; 13.3 Mg/Kg IP) was 23.6 days and the “Tumor Regression Duration Range (Days)” value ([11]; 13.3 Mg/Kg IP) was 24-24 Days. The “Tumor Regression Number of Complete” value ([11]; 13.3 Mg/Kg IP) was 6, the “Tumor Regression Number of Partial” value ([11]; 13.3 Mg/Kg IP) was 0 and the “Days Delay (T − C)” value ([11]; 20 Mg/Kg IP) was >43.1 days. The “Days to 2 Doubling” value ([11]; 20 Mg/Kg IP) was >52.0 days, the “Non-Specific Deaths/Total” value ([11]; 20 Mg/Kg IP) was 0/6 and the “Tumor Free Surv/Total” value ([11]; 20 Mg/Kg IP) was 6/6. The “Tumor Regression Number of Complete” value ([11]; 20 Mg/Kg IP) was 6, the “Tumor Regression Number of Partial” value ([11]; 20 Mg/Kg IP) was 0 and the DNA [12] was 0.0056 pmoles/10^6 cells. The Total [12] was 0.2076 pmoles/10^6 cells, the DNA [13] was 0.0025 pmoles/10^6 cells and the “DNA (percent of WT)” value [13] was 45% of WT. For the same compound, the Total [13] was 0.0535 pmoles/10^6 cells, the “Total (percent of WT)” value [13] was 26% of WT and the “Phosphorylation, Wild-type” value [14] was 0.83 pmoles/mg protein/minute. For the same compound, the “Phosphorylation, araC-resistant CEM cells” value ([15]; araC-resistant CEM cell extract, 1 μm substrate) was 0.011 pmoles/mg protein/minute, the Percent of wild-type ([15]; phosphorylation in araC-resistant vs wild-type CEM extract) was 1.3% of wild-type and the “Relative Vmax” value [16] was 0.46. For the same compound, the “DNA (percent of total)” value [17] was 0.3% of total, the “Original Compound (percent of total)” value [17] was 96% of total and the “Percent Deamination” value ([18]; F-dUrd 0 μM) was 0%. The “Percent Deamination” value ([18]; F-dUrd 10 μM) was 0%, the activity at 0.75 µM [19] was 16% and the “RNA synthesis, Percent of control” value [20] was 87% of control. It also gave an activity at 0.75 µM [21] of 72%, an IC50 [22] of 24 ± 9 nM and an IC50 ([23]; Homo sapiens, CCRF-CEM, read-out: IC50 (nM) araC-resistant) of 125 ± 84 nM. It also gave a Resistant/WT ([23]; ratio of IC50 araC-resistant / wild-type CEM cells) of 5.
